Measured values taken from patent US5587463A, “Texaphyrin macrocycles and metal complexes thereof” (Board of Regents, The University of Texas System, priority 1994, dated 1996).
Where two headings read alike, the source gives them in different places. One block for each compound: values may come before it.

Legend:
[1] = Stability to demetallation (sulfide, thiosulfate); assay type: physicochemical; settings: for demetallation by sulfide: aqueous Na2 S / excess sulfide anion
Description: The above K1 and K2 (or K1 K2) values are predicated on the assumption that the cadmium complexes under discussion are stable with regards to demetallation and that the equilibria of equations 1 and 2 (or 3) pertain under the conditions of base binding. The first of these concerns is readily apparent: If demetallation occurs, then obviously one is not studying base binding! […] The second concern is particularly important within the context of quantitative work: If, for instance, the starting complex 3.cndot.NO3 is not rigorously five coordinate, then K1 (and perhaps K2 as well) would represent an axial ligand displacement reaction rather than a pure addition process as implied above. Control experiments indicate that the assumption of initial five coordination is reasonable: Independent titrations of 3A .cndot.NO3 with NH4 NO3 and H2 O indicate that only modest and monotonic changes in the chemical shift of the "meso" signals take place over the course of adding ≥50 equivalents of these potentially adventitious ligands.^40 This means that either "complete" binding occurs at 1:1 stoichiometry (essentially ruled out in the case of H2 O on the basis of analytical data), or that these species are poorly coordinating in CHCl3 so that five coordination pertains about cadmium; the latter interpretation appearing more likely.
(§1) Attempts to demetallate complex 3A .cndot.NO3 were made. In an effort to obtain the free sp^2 bridged ligand 2A, the above complex in chloroform was stirred for several hours in the presence of sodium sulfide and independently with sodium thiosulfate. […] In the case of sodium sulfide, this critical conclusion was further supported by FAB MS: Other than the starting cationic complex 3A, no evidence was obtained for any moderate to high molecular weight volatile products in the mass spectrum. […] The rate of this process, however, is strongly pH dependent, the half-life being, for instance, on the order of several hours in the presence of ca. 0.1N HCl.

[2] = Hydrolysis in aqueous acid; assay type: physicochemical
Description: as §1

[3] = Axial base binding of pyridine, 1H NMR spectral titration
Description: (§2) For a rigorously five coordinate starting cadmium complex, such as that represented schematically by structure 3A, where neither the counter anion nor adventitious ligands serves to occupy an apical coordination site, base binding can be considered to occur in accord with equations (1) and (2) shown below. Under conditions where K1 […]K2, these processes can be considered to occur sequentially, giving first a monoligated, presumably pentagonal pyramidal six coordinate species (such as 4bA), followed by a coordinatively saturated bisligated pentagonal bipyramidal product akin to 5aA. Where, however, K2 >>K1this stepwise conceptual approach is invalid. Under these conditions, it becomes easier to analyze the base binding in terms of direct formation of the bisligated material as shown in equation (3).
(§3) L+B LB K1 =[LB]/[L][B] (1)
(§4) LB+B LB2 K2 =[LB2 ]/[LB][B] (2)
(§5) L+2B LB2 K1 K2 =[LB2 ]/[L][B]^2 (3)
(§6) The ^1 H NMR titration of 3A .cndot.NO3 with BzIm or pyr-D5 was done. Rigorously purified complex 3A .cndot.NO3 was dried at 80° C. under reduced pressure (1 mmHg) for 1 day. Starting samples for titration were then prepared by dissolving this five coordinate complex (3.32 mg, 0.005 mmol) in 0.7 to 0.75 ml of CDCl3 and transferring quantitatively to an NMR tube. To such samples were then added increasing aliquots of either BzIm or pyr-D5 (as solutions of known concentration in CDCl3) and recording the chemical shift of the "meso" protons at 27^Q C. Control experiments were also carried out by adding known quantities of CF3 CO2 H, D2 O, and NH4 NO3 to similar stock solutions of 3.cndot.NO3.
The changes in "meso" proton chemical shift as a function of added [pyr] shown in FIG. 15 indicate a clear […] of two distinct binding regimes. Moreover as expected, attempts to fit the data as a simple monoligation process (to give 6CN material) according to eq. […] This was done using the convenient iterative procedure outlined by Connors.^38 Here the equations of interest, corresponding to eqs. 4.31 and 4.32 of Connors,^38 as adopted for NMR analyses, are:
[pyr]{Δ12 /(δ-δo)-1}-K1 (7)
(δ-δo) {1+K1 [pyr]+K1 K2 [pyr]^2
where δ is the observed chemical shift, δo is the initial chemical shift of the pure five coordinate starting complex 3.cndot.NO3, All is the total chemical shift difference corresponding to the formation of the pure putative monoligated six coordinate species, Δ12 is the total chemical shift corresponding to the formation of the bisligated cationic species 5a from the initial five coordinate material, and [pyr] is the free pyridine concentration. A precise expression for [pyr] is given by equation 9,^38 where [pyr]o is the concentration total added pyridine, and [lig]o represents the concentration of the starting five coordinate ligand 3A .cndot.NO3.
[pyr]o =[pyr]+[lig]o (K1 [pyr]+2K1 K2
[pyr]^2)/(1+K1 [pyr]+K1 K2 [pyr]^2)(9)
Initial iterative solutions of eqs. 7 (plotting 1/[pyr]-K1 Δ11 /(δ-δo) vs. [pyr]{Δ12 /δ-δo)-1}, giving K1 K2 and -K1 as the slope and intercept respectively) and 8 (plotting (δ-δo) {1+K1 [pyr]+K1 K2 [pyr]^2 }/[pyr] vs. [pyr], giving K1 K2 Δ12 and K1 Δ11 as the slope and intercept respectively) were therefore made using this greatly simplifying assumption. They converged quickly to give initial, uncorrected values of K1 =1.5M^-1 and K1 K2 =308M^-2. […]

[4] = Axial base binding of benzimidazole, 1H NMR spectral titration; settings: for conversion to six coordinate form (4bA): ca. 5×10^-3 M
Description: as §2, §3, §4, §5, §6
Determination of Binding Constants. […] The chemical shift data obtained for the "meso" signals as a function of added BzIm were thus analyzed as such at both very low and very high conversion: Standard Scatchard (single reciprocal) plots^38 were constructed by plotting (δ-δo)/[BzIm] vs (δ-δo) according to equation 4 (which corresponds to eq. 5.13 of ref. 38), obtaining K as the absolute value of the slope and the term (δ.infin. -δo)K as the intercept.
(δ-δo)/[BzIm]=-K(δ-δo)+(δ.infi
Here δ is the observed chemical shift, δo is the initial chemical shift of the pure five or six coordinate starting complex (3A .cndot.NO3 or 4bA --NO3), δ.infin. the chemical shift calculated for the final mono- or bisligated complexes 4bA .cndot.NO3 or 5aA .cndot.NO3, K the equilibrium constant in question, and [BzIm] the concentration of free, uncomplexed benzimidazole. […] This was done in a straightforward manner according to the expressions given in equations 5 and 6, where [lig]o represents the concentration of the starting five coordinate ligand 3A .cndot.NO3.
(δ-δo)/δ.infin. -δo) at low
[BzIm].congruent.[BzIm]o -[lig]o at high [BzIm]o (6)
Using these corrected values for [BzIm], straight line Scatchard plots were obtained with R[…]0.99 and 0.98 respectively for the low and high [BzIm]o regimes giving values of K1 and K2 of 1.80×10^4 M^-1 and 12.9 M^-1 respectively.

[5] = Optical and photophysical properties of metallotexaphyrins (laser flash photolysis, fluorescence, singlet oxygen luminescence); assay type: physicochemical; parameters: tt (triplet lifetime): unit not given here; settings: CH3 OH; for Absorption gmax (Soret-type band): first value (Soret); for Absorption gmax (Q-type band): second value (Q-type); for D^1 O2 (singlet oxygen quantum yield) / Df (fluorescence quantum yield): ±10%
Description: Finally, several complexes containing paramagnetic metal ions (e.g. Mn^II, Sm^III, and Eu^III, structures 5c -7c) were investigated.
Comparison of the initial intensity with that obtained using tetrakis (4-hydroxyphenyl)porphyrin (THPP) as photosensitizer^3b under identical conditions allowed calculation of the quantum yields for production of singlet oxygen (^.phi. 1.cndot.2).

[6] = parameters: tt (triplet lifetime): unit not given here; settings: benzene, see reference 4, cited from earlier work
[7] = 1:1 methanol/water

Compound: CCC1=C(C)C2=[N+]3C1=Cc1c(CC)c(CC)c4[n]1[Cd-3]315[N+](=C2)c2ccccc2[N+]1=CC1=[N+]5C(=C4)C(CC)=C1C.O=[N+]([O-])[O-] [3A .cndot.NO3]
demetallation by sulfide [1]: little or no demetallation occurs
changes in optical properties on treatment with sodium sulfide or sodium thiosulfate ([1]; chloroform, several hours): No significant changes in optical properties were observed
hydrolysis in aqueous acid [2]: appears to undergo hydrolysis (at the imine residues) and hence demetallation
half-life for hydrolysis/demetallation ([2]; ca. 0.1N HCl): several hours
conversion to pentagonal bipyramidal product (5aA) ([3]; 3 equivalents of pyridine): ca. 5%
conversion to pentagonal bipyramidal product (5aA) ([3]; 10 equivalents of pyridine): roughly 35%
K1 K2 (pyridine) ([3]; CDCl3, final values, estimated error ≤10%): 315 M^-2
K1 K2 (pyridine) ([3]; CDCl3, final values, estimated error ≤10%, listed as 3A.cndot.NO3): 315±30 M^-2
K1 K2 (pyridine) ([3]; initial, uncorrected): 308 M^-2
conversion to six coordinate form (4bA) ([4]; 0.2 molar equivalents of BzIm): roughly 20%
conversion to six coordinate form (4bA) ([4]; 1.0 molar equivalent of BzIm): 90%
K1 K2 (benzimidazole) ([4]; CDCl3, iterative approach): 1.9×10^5 M^-2
Kd ([4]; CDCl3, iterative approach, read-out: K1 (benzimidazole) (converted)): 50 µM
Kd ([4]; CDCl3, very high conversion, read-out: K2 (benzimidazole) (converted)): 76900 µM
Kd ([4]; CDCl3, very low conversion, read-out: K1 (benzimidazole) (converted)): 55.6 µM

Compound: CCC1=C(C)c2cnc3ccc(Cl)cc3ncc3nc(cc4[n-]c(cc1n2)c(CC)c4CC)C(CC)=C3C.O=[N+]([O-])[O-].[Cd+2] [4C NO3]
Emission gmax [5]: 788 nm
S (= phi 1O2 / phi t) [5]: 0.76
tt (triplet lifetime) ([5]; deoxygenated): 36
Absorption gmax (Soret-type band) [5]: 421 nm
Absorption gmax (Q-type band) [5]: 760 nm
Dt (triplet quantum yield) ([5]; ±5%): 0.97
D^1 O2 (singlet oxygen quantum yield) [5]: 0.74
Df (fluorescence quantum yield) [5]: 0.009

Compound: CCC1=C(C)c2cnc3ccccc3ncc3nc(cc4[n-]c(cc1n2)c(CC)c4CC)C(CC)=C3C.[Cd+2].c1ccc2[nH]cnc2c1 [4bA]
conversion to bisligated seven coordinate form (5bA) ([4]; 10 molar equivalents of BzIm): 35%

Compound: CCC1=C(C)c2cnc3ccccc3ncc3nc(cc4[n-]c(cc1n2)c(CC)c4CC)C(CC)=C3C.[Mn+2].[OH-] [5C OH]
Absorption gmax (Soret-type band) [5]: 420 nm
Absorption gmax (Q-type band) [5]: 760 nm
D^1 O2 (singlet oxygen quantum yield) [5]: < 0.05
Df (fluorescence quantum yield) [5]: < 0.001

Absorption gmax (Soret-type band) [5]: 450 nm
Absorption gmax (Q-type band) [5]: 763 nm
D^1 O2 (singlet oxygen quantum yield) [5]: < 0.05
Df (fluorescence quantum yield) [5]: < 0.001
Compound: CCC1=C(C)c2cnc3cc(C)c(C)cc3ncc3nc(cc4[n-]c(cc1n2)c(CC)c4CC)C(CC)=C3C.[OH-].[OH-].[Sm+3] [6C (OH)2]

Absorption gmax (Soret-type band) [5]: 451 nm
Absorption gmax (Q-type band) [5]: 762 nm
D^1 O2 (singlet oxygen quantum yield) [5]: < 0.05
Df (fluorescence quantum yield) [5]: < 0.001
Compound: CCC1=C(C)c2cnc3cc(C)c(C)cc3ncc3nc(cc4[n-]c(cc1n2)c(CC)c4CC)C(CC)=C3C.[Eu+3].[OH-].[OH-] [7C (OH)2]

Compound: C1=Cc2nc1c(-c1ccccc1)c1ccc([nH]1)c(-c1ccccc1)c1nc(c(-c3ccccc3)c3ccc([nH]3)c2-c2ccccc2)C=C1.[Cd].c1ccncc1 [CdTPP(pyr), reference compound]
demetallation by sulfide [1]: leads to cation loss and precipitation of CdS

Compound: CCCCCC[Si](CCCCCC)(CCCCCC)O[Si]1(O[Si](CCCCCC)(CCCCCC)CCCCCC)n2c3c4cc5ccccc5cc4c2N=C2N=C(N=c4c5cc6ccccc6cc5c(n41)=NC1=NC(=N3)c3cc4ccccc4cc31)c1cc3ccccc3cc12 [SiNC, bis(trin-hexylsiloxy)(2,3-naphthalocyaninato) silicon]
Absorption gmax (first value) [6]: 310 nm
Absorption gmax (second value) [6]: 776 nm
Emission gmax [6]: 780 nm
S (= phi 1O2 / phi t) [6]: 0.90
tt (triplet lifetime) [6]: 331
Dt (triplet quantum yield) ([6]; ±5%): 0.39
D^1 O2 (singlet oxygen quantum yield) ([6]; ±10%): 0.35

Compound: CCC1=C(C)c2cnc3ccccc3ncc3nc(cc4[n-]c(cc1n2)c(CC)c4CC)C(CC)=C3C.[Y+3] [Y^3+ complex of texaphyrin]
half-lives for decomplexation and/or ligand decomposition [7]: exceed 3 weeks

Compound: CCC1=C(C)c2cnc3ccccc3ncc3nc(cc4[n-]c(cc1n2)c(CC)c4CC)C(CC)=C3C.[Cd+2].c1ccncc1.c1ccncc1 [complex 4]
demetallation by sulfide [1]: no demetallation takes place
stability relative to cadmium porphyrins ([1]; neutral conditions / base binding controls): more stable than cadmium porphyrins
hydrolysis in aqueous acid [2]: leads to hydrolysis of the macrocyle
